Data from US8461083B2, “Herbicidal compounds” (Syngenta Limited, priority 2008, dated 2013).

How the values were obtained:
Type in all cases: in vivo
[1] = test system: Amaranthus retoflexus (AMARE); experiment: Pre-emergence herbicidal glasshouse test; conditions: pre-emergence (sprayed after one day cultivation), evaluated after 13 days, 100=total damage to plant, 0=no damage to plant; for PRE Application AMARE, damage to plant: 1000 g/ha; for pest or weed control at 1000 g/ha: Amaranthus retroflexus, 312 h, read-out: PRE Application AMARE, damage to plant
How it was run: (§1)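 Spray at 1000 g/ha, acetone/water 50:50 + 0.5% Tween 20; pre-em 1 d post-sowing, post-em 8 d post-sowing. Glasshouse 24/16 °C, 14 h light, 65% RH, watered twice daily. Visual damage score 0–100 at 13 d.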

Setaria faberi (SETFA) [2] = experiment: Pre-emergence herbicidal glasshouse test; conditions: pre-emergence (sprayed after one day cultivation), evaluated after 13 days, 100=total damage to plant, 0=no damage to plant; for PRE Application SETFA, damage to plant: 1000 g/ha; for pest or weed control at 1000 g/ha: Setaria faberi, 312 h, read-out: PRE Application SETFA, damage to plant
How it was run: as §1

[3] = test system: Alopecurus myosuroides (ALOMY); experiment: Pre-emergence herbicidal glasshouse test; conditions: pre-emergence (sprayed after one day cultivation), evaluated after 13 days, 100=total damage to plant, 0=no damage to plant; for PRE Application ALOMY, damage to plant: 1000 g/ha; for pest or weed control at 1000 g/ha: Alopecurus myosuroides, 312 h, read-out: PRE Application ALOMY, damage to plant
How it was run: as §1

[4] = test system: Echinochloa crus-galli (ECHCG); experiment: Pre-emergence herbicidal glasshouse test; conditions: pre-emergence (sprayed after one day cultivation), evaluated after 13 days, 100=total damage to plant, 0=no damage to plant; for PRE Application ECHCG, damage to plant: 1000 g/ha; for pest or weed control at 1000 g/ha: Echinochloa crus-galli, 312 h, read-out: PRE Application ECHCG, damage to plant
How it was run: (§2)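 Rates of 1000 g/ha are applied as an acetone/water (50:50) spray with 0.5% Tween 20 to soil-sown pots, pre-emergence at day 1 or post-emergence at day 8. Percent damage is assessed after 13 days.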

Solanum nigrum (SOLNI) [5] = experiment: Pre-emergence herbicidal glasshouse test; conditions: pre-emergence (sprayed after one day cultivation), evaluated after 13 days, 100=total damage to plant, 0=no damage to plant; for PRE Application SOLNI, damage to plant: 1000 g/ha; for pest or weed control at 1000 g/ha: Solanum nigrum, 312 h, read-out: PRE Application SOLNI, damage to plant
How it was run: as §1

[6] = test system: Amaranthus retoflexus (AMARE); experiment: Post-emergence herbicidal glasshouse test; conditions: post-emergence (sprayed after 8 days cultivation), evaluated after 13 days, 100=total damage to plant, 0=no damage to plant; for POST Application AMARE, damage to plant: 1000 g/ha; for pest or weed control at 1000 g/ha: Amaranthus retroflexus, 312 h, read-out: POST Application AMARE, damage to plant
How it was run: as §1

Setaria faberi (SETFA) [7] = experiment: Post-emergence herbicidal glasshouse test; conditions: post-emergence (sprayed after 8 days cultivation), evaluated after 13 days, 100=total damage to plant, 0=no damage to plant; for POST Application SETFA, damage to plant: 1000 g/ha; for pest or weed control at 1000 g/ha: Setaria faberi, 312 h, read-out: POST Application SETFA, damage to plant
How it was run: as §1

[8] = test system: Alopecurus myosuroides (ALOMY); experiment: Post-emergence herbicidal glasshouse test; conditions: post-emergence (sprayed after 8 days cultivation), evaluated after 13 days, 100=total damage to plant, 0=no damage to plant; for POST Application ALOMY, damage to plant: 1000 g/ha; for pest or weed control at 1000 g/ha: Alopecurus myosuroides, 312 h, read-out: POST Application ALOMY, damage to plant
How it was run: as §1

[9] = test system: Echinochloa crus-galli (ECHCG); experiment: Post-emergence herbicidal glasshouse test; conditions: post-emergence (sprayed after 8 days cultivation), evaluated after 13 days, 100=total damage to plant, 0=no damage to plant; for POST Application ECHCG, damage to plant: 1000 g/ha; for pest or weed control at 1000 g/ha: Echinochloa crus-galli, 312 h, read-out: POST Application ECHCG, damage to plant
How it was run: as §2

Solanum nigrum (SOLNI) [10] = experiment: Post-emergence herbicidal glasshouse test; conditions: post-emergence (sprayed after 8 days cultivation), evaluated after 13 days, 100=total damage to plant, 0=no damage to plant; for POST Application SOLNI, damage to plant: 1000 g/ha; for pest or weed control at 1000 g/ha: Solanum nigrum, 312 h, read-out: POST Application SOLNI, damage to plant
How it was run: as §1

Compound	PRE Application AMARE, damage to plant [1]	PRE Application SETFA, damage to plant (Setaria faberi (SETFA) [2])	PRE Application ALOMY, damage to plant [3]	PRE Application ECHCG, damage to plant [4]	PRE Application SOLNI, damage to plant (Solanum nigrum (SOLNI) [5])	POST Application AMARE, damage to plant [6]	POST Application SETFA, damage to plant (Setaria faberi (SETFA) [7])	POST Application ALOMY, damage to plant [8]	POST Application ECHCG, damage to plant [9]	POST Application SOLNI, damage to plant (Solanum nigrum (SOLNI) [10])	pest or weed control at 1000 g/ha [1] [%]	pest or weed control at 1000 g/ha (Setaria faberi (SETFA) [2]) [%]	pest or weed control at 1000 g/ha [3] [%]	pest or weed control at 1000 g/ha [4] [%]	pest or weed control at 1000 g/ha (Solanum nigrum (SOLNI) [5]) [%]	pest or weed control at 1000 g/ha [6] [%]	pest or weed control at 1000 g/ha (Setaria faberi (SETFA) [7]) [%]	pest or weed control at 1000 g/ha [8] [%]	pest or weed control at 1000 g/ha [9] [%]	pest or weed control at 1000 g/ha (Solanum nigrum (SOLNI) [10]) [%]
O=C1CCCC(=O)C1C(=O)c1cc2ccc(=O)n(Cc3ccccc3)c2nc1C(F)(F)F [Compound 2.20, 2-(8-Benzyl-7-oxo-7,8-dihydro-2-trifluoromethyl-[1,8]-naphthyridine-3-carbony)-cyclohexane-1,3-dione]	100	100	100	100	100	80	70	70	70	80										
O=C1CCCC(=O)C1C(=O)c1cc2ccc(=O)n(C3CCCC3)c2nc1C(F)(F)F [Compound 2.8, 2-{8-cyclopentyl-7-oxo-7,8-dihydro-2-trifluoromethyl-[1,8]-naphthyridine-3-carbony}-cyclohexane-1,3-dione]											80	70	30	70	90	70	90	70	80	90
COCCn1c(=O)ccc2cc(C(=O)C3C(=O)CCCC3=O)c(C(F)(F)F)nc21 [Compound 2.22, 2-{8-(2-Methoxyethyl)-7-oxo-7,8-dihydro-2-trifluoromethyl-[1,8]-naphthyridine-3-carbony}-cyclohexane-1,3-dione]	100	100	100	100	100	80	80	80	80	90										
C#CCNc1nc2nc(C(F)(F)F)c(C(=O)C3C(=O)CCCC3=O)cc2cc1F [Compound 1.103]	80	100	40	100	100	80	90	70	80	90										
CNc1nc2nc(C(F)(F)F)c(C(=O)C3C(=O)CCCC3=O)cc2cc1F [Compound 1.98, 2-[6-fluoro-7-methylamino-2-trifluoromethyl-[1,8]-naphthyridine-3-carbony]-cyclohexane-1,3-dione]											100	100	20	100	100	90	80	70	80	40
CCCn1c(=O)ccc2cc(C(=O)C3C(=O)CCCC3=O)c(C(F)(F)F)nc21 [Compound 2.13, 2-{8-n.-propyl-7-oxo-7,8-dihydro-2-trifluoromethyl-[1,8]-naphthyridine-3-carbony}-cyclohexane-1,3-dione]	90	90	60	90	100	70	90	80	90	90										
O=C1CCCC(=O)C1C(=O)c1cc2ccc(C(F)F)nc2nc1C(F)(F)F [Compound 1.12]											100	100	90	100	100	60	100	100	100	100
COCCN(C)c1nc2nc(C(F)(F)F)c(C(=O)C3C(=O)CCCC3=O)cc2cc1F [Compound 1.80, 2-[6-fluoro-7-(2-methoxyethylmethylamino)-2-trifluoromethyl-[1,8]-naphthyridine-3-carbony]-cyclohexane-1,3-dione]	100	100	80	100	100	80	80	80	90	80										
Cc1c(F)cnc2nc(C(F)(F)F)c(C(=O)C3C(=O)C4CCC(C4)C3=O)cc12 (stereo not shown) [Compound 3.5, 3-[6-Fluoro-5-methyl-2-trifluoromethyl-[1,8]-naphthyridine-3-carbony]-bicyclo[3.2.1]octane-2,4-dione]											20	30	0	50	60	50	70	0	70	80
CC(C)(F)c1ccc2cc(C(=O)C3C(=O)CCCC3=O)c(C(F)(F)F)nc2n1 [Compound 1.37]	100	100	80	100	100	100	90	80	90	70										
